Laboratory results reported in ChEMBL document CHEMBL1949630, “Discovery of benzodihydroisofurans as novel, potent, bioavailable and brain-penetrant prolylcarboxypeptidase inhibitors” (Bioorg Med Chem Lett, 2012).

Experiments:
Mus musculus [1] = assay: Dose normalized AUC in C57BL/6 mouse at 1 mg/kg by LC/MS/MS analysis; assay type: ADME, organism-based; set-up: dose 1 mg/kg; conditions: in vivo
[2] = Clearance in C57BL/6 mouse at 0.5 mg/kg, iv and 1 mg/kg, po by LC/MS/MS analysis; assay type: ADME, organism-based; conditions: in vivo
[3] = target: T1, Lysosomal Pro-X carboxypeptidase (Mus musculus, UniProt Q7TMR0); assay: Inhibition of mouse PrCP
T1 sequence (Q7TMR0 whole entry): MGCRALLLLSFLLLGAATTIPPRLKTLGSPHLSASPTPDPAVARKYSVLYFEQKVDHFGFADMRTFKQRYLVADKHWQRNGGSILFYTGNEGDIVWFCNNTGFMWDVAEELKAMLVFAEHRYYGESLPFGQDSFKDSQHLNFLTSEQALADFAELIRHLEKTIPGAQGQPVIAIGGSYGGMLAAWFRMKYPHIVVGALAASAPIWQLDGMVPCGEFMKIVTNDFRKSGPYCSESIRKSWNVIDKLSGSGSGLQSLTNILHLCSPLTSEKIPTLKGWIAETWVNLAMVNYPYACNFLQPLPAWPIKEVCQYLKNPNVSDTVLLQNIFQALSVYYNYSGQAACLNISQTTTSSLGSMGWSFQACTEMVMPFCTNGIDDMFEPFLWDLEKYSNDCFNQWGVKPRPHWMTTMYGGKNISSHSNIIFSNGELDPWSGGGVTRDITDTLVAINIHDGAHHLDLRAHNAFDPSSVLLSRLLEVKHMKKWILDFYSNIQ

[4] = Half life in C57BL/6 mouse at 0.5 mg/kg, iv and 1 mg/kg, po by LC/MS/MS analysis; assay type: ADME, organism-based; conditions: in vivo
[5] = Volume of distribution at steady state in C57BL/6 mouse at 0.5 mg/kg, iv and 1 mg/kg, po by LC/MS/MS analysis; assay type: ADME, organism-based; conditions: in vivo, read-out: Vdss
[6] = Oral bioavailability in C57BL/6 mouse at 1 mg/kg by LC/MS/MS analysis; assay type: ADME, organism-based; conditions: in vivo
[7] = target: T1, Lysosomal Pro-X carboxypeptidase; assay: Inhibition of PrCP in mouse plasma assessed as angiotensin 3 cleavage by whole serum shift assay
[8] = Clearance in C57BL/6 mouse at 1 mg/kg, iv and 2 mg/kg, po by LC/MS/MS analysis; assay type: ADME, organism-based; conditions: in vivo
Mus musculus [9] = assay: Dose normalized AUC in C57BL/6 mouse at 2 mg/kg by LC/MS/MS analysis; assay type: ADME, organism-based; set-up: dose 2 mg/kg; conditions: in vivo
[10] = Half life in C57BL/6 mouse at 1 mg/kg, iv and 2 mg/kg, po by LC/MS/MS analysis; assay type: ADME, organism-based; conditions: in vivo
[11] = Volume of distribution at steady state in C57BL/6 mouse at 1 mg/kg, iv and 2 mg/kg, po by LC/MS/MS analysis; assay type: ADME, organism-based; conditions: in vivo, read-out: Vdss
[12] = Oral bioavailability in C57BL/6 mouse at 2 mg/kg by LC/MS/MS analysis; assay type: ADME, organism-based; conditions: in vivo
[13] = Fraction unbound in mouse plasma; assay type: ADME, cell-free
[14] = Fraction unbound in human plasma; assay type: ADME, cell-free

SMILES	AUC/dose (Mus musculus [1])	clearance [2]	IC50 [3]	half-life [4]	Vd [5]	bioavailability [6]	IC50 [7]	clearance [8]	AUC/dose (Mus musculus [9])	half-life [10]	Vd [11]	bioavailability [12]	fraction unbound [13]	fraction unbound [14]
Clc1cc(Cl)cc(C2OC3(CCN(Cc4ccc(N5CCCC5)cn4)CC3)c3ccccc32)c1 (racemic)	1.22 µM·kg·h/mg	7.6 mL/min/kg	17 nM	8.5 h	4.7 L/kg	23%								
CC(C)(c1ccc(OC(F)(F)F)cc1)N1CCC2(CC1)OC(c1cc(Cl)ccn1)c1cccnc12 (racemic)	0.41 µM·kg·h/mg		0.39 nM	> 8 h		41%	351 nM							
FC(F)(F)Oc1ccc(CN2CCC3(CC2)OC(c2cc(Cl)ccn2)c2cccnc23)cc1 (racemic)			5.8 nM					74 mL/min/kg	0.23 µM·kg·h/mg	5 h	28 L/kg	47%		
O=S(=O)(c1ccc(OC(F)(F)F)cc1)N1CCC2(CC1)OC(c1cc(Cl)cc(Cl)c1)c1cccnc12 (racemic)	0.33 µM·kg·h/mg	33 mL/min/kg	1.8 nM	4.8 h	9.5 L/kg	36%	712 nM						< 0.0006	< 0.0006
FC(F)(F)Oc1ccc(CN2CCC3(CC2)OC(c2cc(Cl)cc(Cl)c2)c2ccccc23)cc1 (centres undefined)			1 nM				> 1000 nM	8.1 mL/min/kg	2.16 µM·kg·h/mg	7 h	4.4 L/kg	53%		
FC(F)(F)c1ccc(CN2CCC3(CC2)OC(c2cc(Cl)cc(Cl)c2)c2ccccc23)nc1 (racemic)	0.11 µM·kg·h/mg	51 mL/min/kg	0.71 nM	4.1 h	11 L/kg	16%	144 nM							
Fc1ccc(CN2CCC3(CC2)OC(c2cc(Cl)cc(Cl)c2)c2ccccc23)nc1 (centres undefined)	1.36 µM·kg·h/mg	28 mL/min/kg	2.5 nM	7 h	16 L/kg	22%								
Clc1cc(Cl)cc(C2OC3(CCN(Cc4cc5ccccc5o4)CC3)c3ccccc32)c1 (racemic)			2.5 nM				> 1000 nM							
FC(F)(F)Oc1ccc(CN2CCC3(CC2)OC(c2ccc(Cl)cn2)c2ccccc23)cc1 (racemic)	0.46 µM·kg·h/mg	30 mL/min/kg	25 nM	6.5 h	14 L/kg	35%								
OCC(c1ccccc1)N1CCC2(CC1)OC(c1cc(Cl)cc(Cl)c1)c1cccnc12 (racemic)	0.05 µM·kg·h/mg	126 mL/min/kg	110 nM	2.3 h	20 L/kg	17%								
FC(F)(F)Oc1ccc(CN2CCC3(CC2)OC(c2cc(Cl)cc(Cl)c2)c2ccncc23)cc1 (racemic)	0.28 µM·kg·h/mg	35 mL/min/kg	1.3 nM	6.1 h	15 L/kg	29%	380 nM							
FC(F)(F)Oc1ccc(CN2CCC3(CC2)OC(c2cc(Cl)cc(Cl)c2)c2cnccc23)cc1 (racemic)			5.2 nM				427 nM							
CC(C)(O)C(c1ccccc1)N1CCC2(CC1)OC(c1cc(Cl)cc(Cl)c1)c1cccnc12 (racemic)	0.11 µM·kg·h/mg	38 mL/min/kg	5.2 nM	3.4 h	7.3 L/kg	16%								
FC(F)(F)Oc1ccc(CN2CCC3(CC2)OC(c2ccccn2)c2ccccc23)cc1 (racemic)	0.14 µM·kg·h/mg	70 mL/min/kg	20 nM	5 h	26 L/kg	25%								
[O-][n+]1ccc(Cl)cc1C1OC2(CCN(Cc3ccc(OC(F)(F)F)cc3)CC2)c2ccccc21 (single isomer, unassigned)			0.38 nM					57 mL/min/kg	0.43 µM·kg·h/mg	5.6 h	27 L/kg	72%	0.007	0.006
O=S(=O)(c1ccc(C(F)(F)F)cn1)N1CCC2(CC1)OC(c1cc(Cl)cc[n+]1[O-])c1ccccc12 (racemic)	0.1 µM·kg·h/mg	87 mL/min/kg	0.11 nM	2.1 h	12 L/kg	23%							0.025	0.05
CC(c1ccc(F)cn1)N1CCC2(CC1)OC(c1cc(Cl)ccn1)c1ccccc12 (racemic)	0.032 µM·kg·h/mg	96 mL/min/kg		1.7 h	13 L/kg	7.8%								
CC(c1ccc(F)cn1)N1CCC2(CC1)OC(c1cc(Cl)cc(Cl)c1)c1ccccc12 (racemic)	0.27 µM·kg·h/mg	31 mL/min/kg	0.31 nM	5.9 h	14 L/kg	22%	90 nM							
CC(c1ccc(F)cn1)N1CCC2(CC1)OC(c1cc(Cl)cc(Cl)c1)c1cccnc12 (centres undefined)	0.028 µM·kg·h/mg	69 mL/min/kg	1.1 nM	4 h	19 L/kg	5.4%	14 nM							
FC(F)(F)Oc1ccc(CN2CCC3(CC2)OC(c2cc(Cl)cc(Cl)c2)c2cccnc23)cc1 (centres undefined)	0.26 µM·kg·h/mg	28 mL/min/kg	1.4 nM	4 h	8.2 L/kg	22%								
CC(c1ccc(F)cn1)N1CCC2(CC1)OC(c1cc(Cl)ccn1)c1cccnc12 (racemic)	0.008 µM·kg·h/mg	127 mL/min/kg	10.6 nM	2.1 h	17 L/kg	2.6%	19 nM							
